Target: T1, human alpha-7 nAChR (Homo sapiens, UniProt P36544)
T1 construct: expressed in transfected cells; host or cells: Xenopus laevis oocytes (cRNA injection)
Assay: Two-electrode voltage clamp of alpha-7 nAChR expressed in Xenopus oocytes (net charge)
Type: cell-based
Details: area under the curve of current vs. time; for Charge Alone: compound alone acting as an allosteric agonist; for Charge +C: compound together with choline or ACh, includes PAM and ago-PAM activity; call rule not given here
Experimental: The human alpha-7 nAChR receptor clone was obtained from Dr. Jon Lindstrom {University of Pennsylvania, Philadelphia, Pa.), aid the RIC-3 clone from Dr. Millet Treinin (Hebrew University, Jerusalem, Israel) for the purpose of co-injection with a7 to improve the level and speed of receptor expression (Halevi et al., 2003). After linearization and purification of cloned cDNA's, RNA, transcripts were prepared rising the appropriate mMessage mMachine kit tiom Ambion (Austin, Tex.).
Expression in X, laeivis Oocytes
Oocytes were obtained from mature (>9 cm) female Xenopus laeivis African frogs (Nasco, Ft. Atkinson, Wis.). Frogs were anesthetized in 0.7 g/L solution of ethyl 3-aminobenzoate methanesulfonate buffered with sodium bicarbonate, and oocytes were surgically removed through an abdominal incision. Harvested oocytes were treated with 1.25 mg/ml collagenase (Worthington Biochemicals, Freehold, N.J.) in calcium-free Barth's solution (88 mM NaCl, 1 mM KCl, 2.38 mM NaHCO3, 0.82 mM MgSO4, 15 mM HEPES, 12 mg/L tetracycline, pH 7.6) for 3-4 hours to remove the follicular layer. Stage-5 oocytes were isolated and injected with 50 nL (5-20 ng) of human alpha-7 and RIC-3 cRNA. Suitable levels of receptor expression were typically achieved 2-6 days after injection of cRNA. For experiments involving the PAM 4BP-TQS/GAT-107, where standard levels of expression result in ion currents too large to be recorded in voltage clamp, experiments were typically conducted 1-3 days after RNA injection.
Two-electrode voltage clamp experiments were conducted using OpusXpress6000A (Molecular Devices, Sunnyvale, Calif.), an integrated system that provides automated impalement and voltage clamp of up to eight oocytes in parallel. Both the current and voltage electrodes were filled with 3 M KCl, and oocytes were clamped at a holding potential of −60 mV. Data were collected at 50 Hz and filtered at 20 Hz. The oocytes were bath-perfused with Ringer's solution (115 mM NaCl, 10 mM HEPES, 2.5 mM KCl, 1.8 mM CaCl2, pH 7.3), and agonist solutions were delivered from a 96-well drug plate using disposable tips. Flow rates were set at 2 mL/min, with each drug or control solution delivered in 12 s durations, followed˜by 181 s washouts with Ringer's unless noted otherwise.
Experimental Protocols and Data Analysis
Responses of human alpha-7 receptors to agonists were measured as both peek current and net charge measured over a 120 s period beginning with the compound application (Papke and Papke, 2002). […] In experiments involving positive allosteric modulators (PAMs), the fast desensitization of alpha-7 was eliminated, allowing peak currents to be used as a valid measurement of the receptor-mediated responses (Wang et al., 2012; Williams et al., 2011).
Oocytes received two control ACh applications prior to receiving any drug in order to establish a steady reference response, and they received one or more control ACh applications at the end of all experiments. For experiments involving drug incubation through bath applications, all responses were normalized to the average of two ACh control responses taken immediately prior to the switch of bath solution, for each cell individually. These normalization procedures had the effect of compensating for differing levels of receptor expression among the multiple oocytes used in each experiment. Each experiment was conducted on at least four oocytes, with mean values and standard errors (S.E.M.) calculated from their normalized responses. […]

T1 sequence (P36544 23-502): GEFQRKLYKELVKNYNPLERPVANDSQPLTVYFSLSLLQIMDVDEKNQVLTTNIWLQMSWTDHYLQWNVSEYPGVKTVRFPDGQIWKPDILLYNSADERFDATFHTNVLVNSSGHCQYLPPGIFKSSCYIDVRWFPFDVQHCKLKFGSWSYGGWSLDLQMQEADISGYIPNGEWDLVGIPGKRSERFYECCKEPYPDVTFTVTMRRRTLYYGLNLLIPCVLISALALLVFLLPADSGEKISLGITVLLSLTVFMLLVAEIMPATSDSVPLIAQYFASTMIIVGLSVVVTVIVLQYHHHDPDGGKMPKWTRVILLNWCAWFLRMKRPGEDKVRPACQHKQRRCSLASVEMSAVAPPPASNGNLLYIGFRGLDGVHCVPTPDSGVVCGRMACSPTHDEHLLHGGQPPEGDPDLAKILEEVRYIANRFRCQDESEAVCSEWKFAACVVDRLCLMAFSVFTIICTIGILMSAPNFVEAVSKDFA

In the case of `NS(=O)(=O)c1ccc2c(c1)[C@H]1C=CC[C@H]1[C@@H](c1ccncc1)N2` (stereo in doubt) [Compound 2, 4-(pyridin-4-yl)-3a,4,5,9b-tetrahydro-3H-cyclopenta[c]quinoline-8-sulfonamide], the “Charge Alone” value is reported as “Inactive” and the “Charge +C” value is reported as “Inactive”.
With `NS(=O)(=O)c1ccc2c(c1)[C@H]1OCC[C@H]1[C@@H](c1ccc(Br)cc1)N2` (stereo in doubt) [Compound 3, 4-(4-bromophenyl)-2,3,3a,4,5,9b-hexahydrofuro[3,2-c]quinoline-8-sulfonamide] the “Charge Alone” value was “Inactive” and the “Charge +C” value was “Inactive”.
In the case of `NS(=O)(=O)c1ccc([C@H]2Nc3ccc(Br)cc3[C@H]3C=CC[C@H]32)cc1` (stereo in doubt) [Compound 4, 4-(8-bromo-3a,4,5,9b-tetrahydro-3H-cyclopenta[c]quinolin-4-yl)benzenesulfonamide], the “Charge Alone” value is reported as 0 and the “Charge +C” value is reported as 8.4.
`NS(=O)(=O)c1ccc2c(c1)[C@H]1CCC[C@H]1[C@@H](c1ccc(Br)cc1)N2` (stereo in doubt) [Compound 5, 4-(4-bromophenyl)-2,3,3a,4,5,9b-hexahydro-1H-cyclopenta[c]quinoline-8-sulfonamide] was tested, and the “Charge Alone” value was 23 and the “Charge +C” value was 93.
`N#Cc1ccc([C@@H]2Nc3ccc(S(N)(=O)=O)cc3[C@H]3C=CC[C@H]32)cc1` (stereo in doubt) [Compound 6, 4-(4-cyanophenyl)-3a,4,5,9b-tetrahydro-3H-cyclopenta[c]quinoline-8-sulfonamide] was tested, and the “Charge Alone” value was “Inactive” and the “Charge +C” value was “Inactive”.
For `NS(=O)(=O)c1ccc2c(c1)[C@H]1C=CC[C@H]1[C@@H](c1ccc([N+](=O)[O-])cc1)N2` (stereo in doubt) [Compound 8, 4-(4-nitrophenyl)-3a,4,5,9b-tetrahydro-3H-cyclopenta[c]quinoline-8-sulfonamide], the “Charge Alone” value was 43 and the “Charge +C” value was 318.
In the case of `NS(=O)(=O)c1ccc2c(c1)N[C@H](c1ccc(Br)cc1)[C@@H]1CC=C[C@H]21` (stereo in doubt) [Compound 10, 4-(4-bromophenyl)-3a,4,5,9b-tetrahydro-3H-cyclopenta[c]quinoline-7-sulfonamide], the “Charge Alone” value is reported as “Inactive” and the “Charge +C” value is reported as “Inactive”.
For `NS(=O)(=O)c1cccc2c1N[C@H](c1ccc(Br)cc1)[C@@H]1CC=C[C@H]21` (stereo in doubt) [Compound 11, 4-(4-bromophenyl)-3a,4,5,9b-tetrahydro-3H-cyclopenta[c]quinoline-6-sulfonamide], the “Charge Alone” value was “Inactive” and the “Charge +C” value was “Inactive”.
In the case of `NS(=O)(=O)c1ccc2c(c1)[C@H]1C=CC[C@H]1[C@@H](c1ccc(-c3ccccc3)cc1)N2` (stereo in doubt) [Compound 12, 4-([1,1′-biphenyl]-4-yl)-3a,4,5,9b-tetrahydro-3H-cyclopenta[c]quinoline-8-sulfonamide], the “Charge +C” value is reported as 76.
In the case of `NS(=O)(=O)c1ccc2c(c1)[C@H]1C=CC[C@H]1[C@@H](Cc1ccccc1)N2` (stereo in doubt) [Compound 13, 4-benzyl-3a,4,5,9b-tetrahydro-3H-cyclopenta[c]quinoline-8-sulfonamide], the “Charge +C” value is reported as 76.
`NS(=O)(=O)c1ccc2c(c1)[C@H]1C=CC[C@H]1[C@@H](c1ccoc1)N2` (stereo in doubt) [Compound 14, 4-(furan-3-yl)-3a,4,5,9b-tetrahydro-3H-cyclopenta[c]quinoline-8-sulfonamide] was tested, and the “Charge Alone” value was “Inactive” and the “Charge +C” value was “Inactive”.
`NS(=O)(=O)c1ccc2c(c1)[C@H]1C=CC[C@H]1[C@@H](c1ccsc1)N2` (stereo in doubt) [Compound 15, 4-(thiophen-3-yl)-3a,4,5,9b-tetrahydro-3H-cyclopenta[c]quinoline-8-sulfonamide] was tested, and the “Charge +C” value was 500.
For `NS(=O)(=O)c1ccc2c(c1)[C@H]1C=CC[C@H]1[C@@H](c1cccs1)N2` (stereo in doubt) [Compound 17, 4-(thiophen-2-yl)-3a,4,5,9b-tetrahydro-3H-cyclopenta[c]quinoline-8-sulfonamide], the “Charge Alone” value was 0.031 and the “Charge +C” value was 21.096.
For `Nc1ccc([C@H]2Nc3ccc(S(N)(=O)=O)cc3[C@H]3C=CC[C@H]32)cc1` (stereo in doubt) [Compound 18, 4-(4-aminophenyl)-3a,4,5,9b-tetrahydro-3H-cyclopenta[c]quinoline-8-sulfonamide], the “Charge +C” value was 250.
`NS(=O)(=O)c1ccc2c(c1)[C@H]1C=CC[C@H]1[C@@H](C1CCCCC1)N2` (stereo in doubt) [Compound 19, 4-cyclohexyl-3a,4,5,9b-tetrahydro-3H-cyclopenta[c]quinoline-8-sulfonamide] was tested, and the “Charge Alone” value was “Inactive” and the “Charge +C” value was “Inactive”.
With `NS(=O)(=O)c1ccc2c(c1)[C@H]1C=CC[C@H]1[C@@H](c1ccccc1[N+](=O)[O-])N2` (stereo in doubt) [Compound 20, 4-(2-nitrophenyl)-3a,4,5,9b-tetrahydro-3H-cyclopenta[c]quinoline-8-sulfonamide] the “Charge +C” value was 52.
`CN(C)S(=O)(=O)c1ccc2c(c1)[C@H]1C=CC[C@H]1[C@@H](c1ccc(Br)cc1)N2` (stereo in doubt) [Compound 21, 4-(4-bromophenyl)-N,N-dimethyl-3a,4,5,9b-tetrahydro-3H-cyclopenta[c]quinoline-8-sulfonamide] was tested, and the “Charge Alone” value was “Inactive” and the “Charge +C” value was “Inactive”.
`CNS(=O)(=O)c1ccc2c(c1)[C@H]1C=CC[C@H]1[C@@H](c1ccc(Br)cc1)N2` (stereo in doubt) [Compound 22, 4-(4-bromophenyl)-N-methyl-3a,4,5,9b-tetrahydro-3H-cyclopenta[c]quinoline-8-sulfonamide] was tested, and the “Charge Alone” value was “Inactive” and the “Charge +C” value was “Inactive”.
For `O=S(=O)(c1ccc2c(c1)[C@H]1C=CC[C@H]1[C@@H](c1ccc(Br)cc1)N2)N1CCOCC1` (stereo in doubt) [Compound 23, 4-((4-(4-bromophenyl)-3a,4,5,9b-tetrahydro-3H-cyclopenta[c]quinolin-8-yl)sulfonyl)morpholine], the “Charge Alone” value was “Inactive” and the “Charge +C” value was “Inactive”.
In the case of `[N-]=[N+]=Nc1ccc([C@H]2Nc3ccc(S(N)(=O)=O)cc3[C@H]3C=CC[C@H]32)cc1` (stereo in doubt) [Compound 25, 4-(4-azidophenyl)-3a,4,5,9b-tetrahydro-3H-cyclopenta[c]quinoline-8-sulfonamide], the “Charge Alone” value is reported as 61.
For `NS(=O)(=O)c1ccc2c(c1)[C@H]1C=CC[C@H]1[C@@H](c1ccc(N=C=S)cc1)N2` (stereo in doubt) [Compound 26, 4-(4-isothiocyanatophenyl)-3a,4,5,9b-tetrahydro-3H-cyclopenta[c]quinoline-8-sulfonamide], the “Charge Alone” value was 0 and the “Charge +C” value was 22.
`NS(=O)(=O)c1ccc([C@H]2Nc3ccc(S(N)(=O)=O)cc3[C@H]3C=CC[C@H]32)cc1` (stereo in doubt) [Compound 28, 4-(4-sulfamoylphenyl)-3a,4,5,9b-tetrahydro-3H-cyclopenta[c]quinoline-8-sulfonamide] was tested, and the “Charge +C” value was 128.
With `NS(=O)(=O)c1ccc2c(c1)[C@H]1C=CC[C@H]1[C@@H](c1ccc(S(F)(F)(F)(F)F)cc1)N2` (stereo in doubt) [Compound 31, 4-(4-(pentafluoro-λ^6-sulfanyl)phenyl)-3a,4,5,9b-tetrahydro-3H-cyclopenta[c]quinoline-8-sulfonamide] the “Charge Alone” value was 89 and the “Charge +C” value was 206.
`NS(=O)(=O)c1ccc2c(c1)[C@H]1C=CC[C@H]1CN2` (stereo in doubt) [Compound 33, 3a,4,5,9b-tetrahydro-3H-cyclopenta[c]quinoline-8-sulfonamide] was tested, and the “Charge Alone” value was “Inactive” and the “Charge +C” value was “Inactive”.
In the case of `NS(=O)(=O)c1ccc2c(c1)[C@H]1C=CC[C@H]1[C@@H](c1csc(Br)c1)N2` (stereo in doubt) [Compound 35, 4-(5-bromothiophen-3-yl)-3a,4,5,9b-tetrahydro-3H-cyclopenta[c]quinoline-8-sulfonamide], the “Charge +C” value is reported as 157.

Reference: patent US11299496B2, “Ligands for alpha-7 nicotinic acetylcholine receptors and methods of treating neurological and inflammatory conditions” (Northeastern University, priority 2014, dated 2022)
